Measurements reported in patent US4705799A, “Aminomethyl oxooxazolidinyl benzenes useful as antibacterial agents” (E. I. Du Pont de Nemours and Company, priority 1985, dated 1987).
Values after ≈ are worked out from the molar mass of the structure shown.

How the values were obtained:
Escherichia coli [1] = experiment: In vivo efficacy of compounds administered subcutaneously in mouse intraperitoneal infections; settings: sc, 168 h; mouse i.p. Escherichia coli infection; subcutaneous; dosed at infection and 4 h post-infection; 7 days; read-out: ED50 (50 percent effective dose)
Staphylococcus aureus [2] = experiment: as above; settings: sc, 168 h; mouse i.p. Staphylococcus aureus infection; subcutaneous; dosed at infection and 4 h post-infection; 7 days; read-out: ED50 (50 percent effective dose)
Escherichia coli [3] = experiment: In vitro broth dilution minimal inhibitory concentration (standard microdilution method); type: cell-based; settings: Escherichia coli; Mueller-Hinton broth; 24-hour; read-out: Microdilution Broth MIC
[4] = tested on: Staphylococcus epidermidis; experiment: as above; type: cell-based; settings: 24 h, Mueller-Hinton broth, 24-hour, read-out: Microdilution Broth MIC
Escherichia coli [5] = experiment: In vivo efficacy of orally administered compounds in mouse intraperitoneal infections; settings: 168 h; mouse i.p. Escherichia coli infection; oral; dosed at infection and 4 h post-infection; 7 days; read-out: ED50 (50 percent effective dose)
Staphylococcus aureus [6] = experiment: as above; settings: Staphylococcus aureus, po, 168 h, mouse i.p. Staphylococcus aureus infection; oral; dosed at infection and 4 h post-infection; 7 days; read-out: ED50 (50 percent effective dose)

SMILES | ED50 (Escherichia coli [1]) [mg/kg] | ED50 (Staphylococcus aureus [2]) [mg/kg] | MIC (Escherichia coli [3]) [µg/mL] | MIC [4] [µg/mL] | ED50 (Escherichia coli [5]) [mg/kg] | ED50 (Staphylococcus aureus [6]) [mg/kg]
CC(=O)NCC1CN(c2ccc(S(N)(=O)=O)cc2)C(=O)O1 (single isomer, unassigned) [Example 113, (l)-N-[3-[4-(Aminosulfonyl)phenyl]-2-oxooxazolidin-5-ylmethyl]acetamide] | 11.7 | 9.6 | 100 (≈ 319 µM) | 25 (≈ 79.8 µM) | 29.7 | 17.2
CC(=O)NCC1CN(c2ccc([S+](C)[O-])cc2)C(=O)O1 (single isomer, unassigned) [Example 120, (l)-N-[3-[4-(Methylsulfinyl)phenyl]-2-oxooxazolidin-5-ylmethyl]acetamide] | 6.1 | 2.8 | > 200 | 10 (≈ 33.7 µM) | 11.1 | 3.3
CC(=O)NCC1CN(c2ccc(C(C)=O)cc2)C(=O)O1 (single isomer, unassigned) [Example 129, (l)-N-[3-(4-Acetylphenyl)-2-oxo-5-oxazolidinylmethyl)acetamide] | 14 | 0.5 | 12.5 (≈ 45.2 µM) | 0.4 (≈ 1.45 µM) | 13.6 | 0.7
CC(=O)NCC1CN(c2ccc(C(C)O)cc2)C(=O)O1 (single isomer, unassigned) [Example 130, (l)-N-[3-[4-(1-Hydroxyethyl)phenyl]-2-oxo-5-oxazolidinylmethyl]acetamide] | 26.3 | < 1.3 | 50 (≈ 180 µM) | 3.1 (≈ 11.1 µM) | 17.4 | 2.1
CC(=O)NCC1CN(c2ccc(C(C)=NNC(C)=O)cc2)C(=O)O1 (single isomer, unassigned) [Example 132, (l)-N-[3-[4-[1-(Acetylhydrazono)ethyl]phenyl]-2-oxo-5-oxazolidinylmethyl]acetamide] | > 120 | 6.9 | > 200 | 6.2 (≈ 18.7 µM) | 24.7 | < 4.4
CCc1ccc(N2CC(CNC(C)=O)OC2=O)cc1 (single isomer, unassigned) [Example 133, (l)-N-[3-(4-Ethylphenyl)-2-oxo-5-oxazolidinylmethyl]acetamide] | 15.2 | 2.2 | > 200 | 1.6 (≈ 6.1 µM) | 17.9 | 3
CC(=O)NCC1CN(c2ccc([N+](=O)[O-])cc2)C(=O)O1 (single isomer, unassigned) [Example 146, (l)-N-[3-(4-Nitrophenyl)-2-oxooxazolidin-5-ylmethyl]acetamide] | 40 | > 13 | 200 (≈ 716 µM) | 2.4 (≈ 8.59 µM) | 29.8 | 2
CC(=O)NCC1CN(c2ccc(S)cc2)C(=O)O1 (single isomer, unassigned) [Example 153, (l)-N-[3-(4-Mercaptophenyl)-2-oxooxazolidin-5-ylmethyl]acetamide] | 57.2 | < 13 | > 50 | > 50 | 17 | 5.7
CSCC(=O)c1ccc(N2CC(CNC(C)=O)OC2=O)cc1 (single isomer, unassigned) [Example 161, (l)-N-[3-[4-(Methylthioacetyl)phenyl]-2-oxo-5-oxazolidinylmethyl]acetamide] | > 120 | 5.4 | > 200 | 1.6 (≈ 4.96 µM) | > 120 | 10.4
CC(=O)NCC1CN(c2ccc(C(C)=NNC(C)=O)cc2)C(=O)O1 (stereo not drawn) [Example 36] | > 120 | 7.4 | > 200 | 25 (≈ 75.2 µM) | 47.2 | 4.7
CC(=O)NCC1CN(c2ccc(C(C)C)cc2)C(=O)O1 (stereo not drawn) [Example 38] | 60.4 | 4.8 | > 200 | 9.4 (≈ 34 µM) | > 120 | 9.1
COC(=O)NCC1CN(c2ccc(C(C)C)cc2)C(=O)O1 (stereo not drawn) [Example 39] | > 120 | 5.5 | > 200 | 12.5 (≈ 42.8 µM) | > 120 | 6.1
CNS(=O)(=O)c1ccc(N2CC(CNC(C)=O)OC2=O)cc1 (stereo not drawn) [Example 46] | 91 | > 13 | > 200 | 12.5 (≈ 38.2 µM) | 62.5 | 15.8
CS(=O)(=O)c1ccc(N2CC(CNC(=O)CCl)OC2=O)cc1 (stereo not drawn) [Example 67] | 99 | 18.6 | 2.5 (≈ 7.21 µM) | 3.2 (≈ 9.23 µM) | > 120 | 42.5
CCCCc1ccc(N2CC(CNC(C)=O)OC2=O)cc1 (stereo not drawn) [Example 81] | > 120 | 27.9 | > 200 | 6.2 (≈ 21.4 µM) | > 120 | 47.9
CCc1ccc(N2CC(CNC(C)=O)OC2=O)cc1 (stereo not drawn) [Example 82] | 95.1 | 2 | > 200 | 3.1 (≈ 11.8 µM) | 65.9 | 2.7
CCc1ccc(N2CC(CNC(=O)OC)OC2=O)cc1 (stereo not drawn) [Example 83] | > 12 | 6.6 | > 200 | 12.5 (≈ 44.9 µM) | > 120 | 9.6
CC(=O)NCC1CN(c2ccc(Br)cc2)C(=O)O1 (stereo not drawn) [Example 86] | > 40 | 4.7 | > 200 | 6.25 (≈ 20 µM) | > 40 | 6.9
CC(=O)NCC1CN(c2ccc(Cl)cc2)C(=O)O1 (stereo not drawn) [Example 87] | > 120 | 10.5 | > 200 | 100 (≈ 372 µM) | > 120 | 42
CC(=O)NCC1CN(c2ccc(F)cc2)C(=O)O1 (stereo not drawn) [Example 88] | > 120 | 21.9 | > 200 | > 200 | > 120 | 23.6
CS(=O)(=O)c1ccc(N2CC(CNC(=O)CCCl)OC2=O)cc1 (stereo not drawn) [Example 94] | 46.7 | 18.7 | 200 (≈ 554 µM) | 18.8 (≈ 52.1 µM) | 76.8 | 30.2
CC(=O)c1ccc(N2CC(CNC(=O)CCCl)OC2=O)cc1 (stereo not drawn) [Example 95] | 60.7 | 7.7 | > 200 | 12.5 (≈ 38.5 µM) | > 120 | 10.9
COC(=O)NCC1CN(c2ccc(S(=O)(=O)N=[N+]=[N-])cc2)C(=O)O1 (stereo not drawn) [Example 117] | > 120 | 7.2 | > 200 | 200 (≈ 563 µM) | > 120 | 16.1
CCC(=O)c1ccc(N2CC(CNC(C)=O)OC2=O)cc1 (stereo not drawn) [Example 134, l-N-[2-oxo-3-[4-(1-oxopropyl)phenyl]-5-oxazolidinylmethyl]acetamide] | 42.1 | < 4.4 | 25 (≈ 86.1 µM) | 0.4 (≈ 1.38 µM) | 46.9 | < 4.4
CC(=O)NCC1CN(c2ccc(C(=O)CCl)cc2)C(=O)O1 (stereo not drawn) [Example 135, l-N-[3-[4-(chloroacetyl)phenyl]-2-oxo-5-oxazolidinylmethyl]acetamide] | 100 | < 4.4 | 100 (≈ 322 µM) | 0.15 (≈ 0.483 µM) | 100 | < 4.4
